According to US9212178B2, “Substituted pyrimidine compounds and their use as SYK inhibitors” (Genosco, priority 2013, dated 2015):

Tests used:
full-length human SYK = full-length human SYK (Homo sapiens (Human), UniProt P43405); test: Inhibition of enzymatic SYK kinase activity (LANCE Ulight TK peptide); assay type: biochemical; settings: ATP at Km (15 uM), 30 min pre-incubation
Description: Compounds of the present invention were assayed to measure their capacity to inhibit a spleen tyrosine kinase (SYK).
Compounds of the invention were initially diluted to 10 mM in 100% DMSO (CALBIOCHEM™) for storage and made into kinase buffer solution to create a compound concentration ranging from 1 uM and 10 uM. Serial dilutions of compounds of the invention were dispensed into a 96-well plate (GREINER BIOSCIENCES™) at 6 μL each. Purified full-length human SYK (CARNA BIOSCIENCES™) were diluted in kinase buffer and added to the compound solutions and pre-incubated for 30 minutes at room temperature. […] The reaction mixture was incubated for 1 hour. Following the incubation, the stop solution made with EDTA, water, and Lance detection buffer ([…]™) was added (12 μL each) to stop phosphorylation.

THP-1 cells = test: SYK-dependent TNF-α release assay (IgG stimulation), ELISA; assay type: cell-based; settings: THP-1 cells on human IgG-coated plate, 18 hours; read-out: TNF-α release inhibition, IgG stimulation IC50
Description: In order to address cellular potency of Compounds of Formula (I), TNF-a production was measured on treatment of a series of concentration of SYK inhibitor in THP-1 cells.
For SYK-dependent TNF-α release assay (i.e., via IgG stimulation), THP-1 cells derived from human monocytic cells were obtained from the American Type Culture Collection (ATCC, Manassas, Va.). This cell line was maintained with a Roswell Park Memorial Institute (RPMI) medium (GIBCO) containing 10% fetal bovine serum (FBS; GIBCO) and 0.05 mM solution of 2-mercaptoethanol. The THP-1 cells were seeded at 1×10^5 cells/100 μL/well into human IgG (10 ng/well, INVITROGEN)-coated 96 well culture plate, and serially diluted compound was then added. After an 18 hours of incubation period at 37° C., supernatants were collected for the determination of the TNF-α level by enzyme-linked immunosorbent assay (ELISA), and the remaining cells were subjected to an MTT (yellow tetrazolium salt) assay to determine the cytotoxic effects of the compound. The IC50 value of the test compound was calculated at Gradpad Prism 5 unless otherwise specified.

[1] = tested on: Collagen-induced arthritis in DBA/1J mice; test: Collagen-induced arthritis (CIA) mouse model, macroscopic paw scoring; assay type: in vivo; settings: 30 mg/kg/day once daily oral gavage, vehicle = 100.0
Description: CIA mouse model was induced in DBA/1J mice (Japan Charles River Breeding Laboratories, Kanagawa, Japan) with 5 to 6 weeks of age. Animals were maintained at a temperature of 20±5° C. and a relative humidity of 40˜60%.
Bovine type II collagen (CII, 2 mg/ml dissolved in 0.05 M acetic acid, Chondrex, Redmond, Wash.) was emulsified in equal volumes of Freund's complete adjuvant (4 mg/ml of Mycobacterium tuberculosis strain H37Ra; Chondrex, Redmond, Wash.). On day 0, mice were immunized intradermally at the base of the tail with 100 μg bovine type II collagen emulsified in Freund's complete adjuvant. On day 21, all mice were boosted with an intraperitoneal injection of 100 μg type II collagen.
These compounds were dissolved in NMP/20% cyclodextrin/PEG400 5:45:50 solution and filtered by […] membrane filter. All the test substances were administered once daily at 30 mg/kg/day by oral gavage for 3 weeks.
The gradual onset of arthritis usually starts approximately 3 weeks after initial immunization. The progression of CIA was evaluated by the macroscopic scoring of paws at intervals of 3 days. The edema and swelling of each paw was scored visually as was described previously, using a scale of 0-4, where 0=no visible abnormalities, 1=mild redness or swelling of the wrist or up to three inflamed digits, 2=more than three inflamed digits or moderate redness and swelling of the ankle or wrist, 3=severe ankle and wrist inflammation, 4=extensive ankle and wrist inflammation including all digits. Therefore, the score of each mouse was calculated for the four limbs (maximum total score of 16 for each mouse) (Courtenay J S, Dallman M J, Dayan A D, et al., Immunisation against heterologous type II collagen induces arthritis in mice, Nature, 1980, 283, 666-668)
Arthritis was considered to be present if the score was >2. The blind scoring was performed by four independent observers. In this study, data was calculated by following equation. […] Results

Row | Compound | IC50 (full-length human SYK) [nM] | IC50 (THP-1 cells) [nM] | also measured
1 | CCn1cc(C(=O)C2CC2)c2cc(Nc3nccc(-n4cc(CN5C[C@H](O)CO5)c(C)n4)n3)ccc21 [Compound 6, (S)-cyclopropyl(1-ethyl-5-(4-(4-((4-hydroxyisoxazolidin-2-yl)methyl)-3-methyl-1H-pyrazol-1-yl)pyrimidin-2-ylamino)-1H-indol-3-yl)methanone] | 4.69 | 57 | CIA index (arthritic score of test group / vehicle group x 100) ([1]; day 4): 0.0 ± 0.0%; CIA index (arthritic score of test group / vehicle group x 100) ([1]; day 7): 10.9 ± 8.9%; CIA index (arthritic score of test group / vehicle group x 100) ([1]; day 10): 32.3 ± 11.5%; CIA index (arthritic score of test group / vehicle group x 100) ([1]; day 13): 45.3 ± 10.5%; CIA index (arthritic score of test group / vehicle group x 100) ([1]; day 17): 53.3 ± 7.4%; CIA index (arthritic score of test group / vehicle group x 100) ([1]; day 19): 63.4 ± 4.0%
2 | COc1cc(Nc2ncc(F)c(Nc3ccc4c(n3)N(COP(=O)(O)O)C(=O)C(C)(C)O4)n2)cc(OC)c1OC [Compound R788, reference compound] |  |  | CIA index (arthritic score of test group / vehicle group x 100) ([1]; day 4): 36.7 ± 22.7%; CIA index (arthritic score of test group / vehicle group x 100) ([1]; day 7): 82.2 ± 45.2%; CIA index (arthritic score of test group / vehicle group x 100) ([1]; day 10): 80.3 ± 27.3%; CIA index (arthritic score of test group / vehicle group x 100) ([1]; day 13): 97.8 ± 25.0%; CIA index (arthritic score of test group / vehicle group x 100) ([1]; day 17): 73.3 ± 11.2%; CIA index (arthritic score of test group / vehicle group x 100) ([1]; day 19): 72.1 ± 11.2%
3 | CCn1cc(C(=O)C2CC2)c2cc(Nc3nccc(-n4cc(CN5C[C@@H](O)CO5)c(C)n4)n3)ccc21 [Compound 11, (R)-cyclopropyl(1-ethyl-5-(4-(4-((4-hydroxyisoxazolidin-2-yl)methyl)-3-methyl-1H-pyrazol-1-yl)pyrimidin-2-ylamino)-1H-indol-3-yl)methanone] | 6.28 | 89 | 
4 | Cc1nn(-c2ccnc(Nc3ccc4c(c3)c(C(=O)C3CC3)cn4CCF)n2)cc1CN1C[C@H](O)CO1 [Compound 23, (S)-cyclopropyl(1-(2-fluoroethyl)-5-(4-(4-((4-hydroxyisoxazolidin-2-yl)methyl)-3-methyl-1H-pyrazol-1-yl)pyrimidin-2-ylamino)-1H-indol-3-yl)methanone] | 3.71 | 111 | 
5 | Cc1nn(-c2ccnc(Nc3ccc4c(c3)c(C(=O)C3CC3)cn4S(C)(=O)=O)n2)cc1CN1C[C@H](O)CO1 [Compound 27, (S)-cyclopropyl(5-(4-(4-((4-hydroxyisoxazolidin-2-yl)methyl)-3-methyl-1H-pyrazol-1-yl)pyrimidin-2-ylamino)-1-(methylsulfonyl)-1H-indol-3-yl)methanone] | 5.89 | 43 | 
6 | Cc1nn(-c2ccnc(Nc3ccc4c(c3)c(C(=O)C3CC3)cn4C(C)C)n2)cc1CN1C[C@H](O)CO1 [Compound 8, (S)-cyclopropyl(5-(4-(4-((4-hydroxyisoxazolidin-2-yl)methyl)-3-methyl-1H-pyrazol-1-yl)pyrimidin-2-ylamino)-1-isopropyl-1H-indol-3-yl)methanone] | 7.37 | 97 | 
7 | Cc1nn(-c2ccnc(Nc3ccc4c(c3)c(C(=O)C3CC3)cn4CC(F)(F)F)n2)cc1CN1CC(C)(O)CO1 (stereo not drawn) [Compound 16, cyclopropyl(5-(4-(4-((4-hydroxy-4-methylisoxazolidin-2-yl)methyl)-3-methyl-1H-pyrazol-1-yl)pyrimidin-2-ylamino)-1-(2,2,2-trifluoroethyl)-1H-indol-3-yl)methanone] | 14.2 | 226 | 
8 | CC(=O)c1cn(C)c2ccc(Nc3nccc(-n4cc(CN5C[C@H](O)CO5)c(C)n4)n3)cc12 [Compound 9, (S)-1-(5-(4-(4-((4-hydroxyisoxazolidin-2-yl)methyl)-3-methyl-1H-pyrazol-1-yl)pyrimidin-2-ylamino)-1-methyl-1H-indol-3-yl)ethanone] | 13.3 | 229 | 
9 | Cc1nn(-c2ccnc(Nc3ccc4c(c3)c(C(=O)C3CC3)cn4C)n2)cc1CN1CC(C)(O)CO1 (stereo not drawn) [Compound 14, cyclopropyl(5-(4-(4-((4-hydroxy-4-methylisoxazolidin-2-yl)methyl)-3-methyl-1H-pyrazol-1-yl)pyrimidin-2-ylamino)-1-methyl-1H-indol-3-yl)methanone] | 41.7 | 789 | 
10 | Cc1nn(-c2ccnc(Nc3ccc4c(c3)c(S(C)(=O)=O)nn4C)n2)cc1CN1C[C@H](O)CO1 [Compound 26, (S)-2-((3-methyl-1-(2-(1-methyl-3-(methylsulfonyl)-1H-indazol-5-ylamino)pyrimidin-4-yl)-1H-pyrazol-4-yl)methyl)isoxazolidin-4-ol] | 87.1 | 1060 | 
11 | cyclopropyl(1-(2-fluoroethyl)-5-(4-(4-(((S)-4-hydroxyisoxazolidin-2-yl)methyl)-3-methyl-1H-pyrazol-1-yl)pyrimidin-2-ylamino)indolin-3-yl)methanone [Compound 24] | 3.1 | 47 | 
12 | Cc1nn(-c2ccnc(Nc3ccc4c(c3)c(C(=O)C(F)F)cn4C)n2)cc1CN1C[C@H](O)CO1 [Compound 4, (S)-2,2-difluoro-1-(5-(4-(4-((4-hydroxyisoxazolidin-2-yl)methyl)-3-methyl-1H-pyrazol-1-yl)pyrimidin-2-ylamino)-1-methyl-1H-indol-3-yl)ethanone] | 9.42 | 45 | 
13 | CCn1cc(C(=O)C2CC2)c2cc(Nc3nccc(-n4cc(CN5C[C@H](O)CO5)c(C5CC5)n4)n3)ccc21 [Compound 25, (S)-cyclopropyl(5-(4-(3-cyclopropyl-4-((4-hydroxyisoxazolidin-2-yl)methyl)-1H-pyrazol-1-yl)pyrimidin-2-ylamino)-1-ethyl-1H-indol-3-yl)methanone] | 5.85 | 465 | 
